From ChEMBL document CHEMBL1201862, “PubChem BioAssay data set” (2004)
Values joined by “and” are separate entries in the source; they are usually repeats but may differ in a detail not shown here. Equal entries are not always repeated. Blank lines part the entries; values can stand above or below the molecule they belong to. Active and inactive are the calls of the source.

How the values were obtained:
H9c2 = assay: cells; format: functional, cell-based; details: Rattus norvegicus, H9c2, Myocardium;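 note: confirmatory concentration-response retest of ultra-high-throughput screening hits for modulation of myocardial damage; cell death induced by hydrogen peroxide oxidative stress; compound pretreatment for 60 min then peroxide exposure for 2 h; potency is for protecting the cells against peroxide damage rather than for killing them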
Cytochrome P450 3A4 = Cytochrome P450 3A4 (Homo sapiens, UniProt P08684);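 note: CYP3A4 tested as one member of a cytochrome P450 panel screen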
Sequence of Cytochrome P450 3A4 (P08684 whole entry): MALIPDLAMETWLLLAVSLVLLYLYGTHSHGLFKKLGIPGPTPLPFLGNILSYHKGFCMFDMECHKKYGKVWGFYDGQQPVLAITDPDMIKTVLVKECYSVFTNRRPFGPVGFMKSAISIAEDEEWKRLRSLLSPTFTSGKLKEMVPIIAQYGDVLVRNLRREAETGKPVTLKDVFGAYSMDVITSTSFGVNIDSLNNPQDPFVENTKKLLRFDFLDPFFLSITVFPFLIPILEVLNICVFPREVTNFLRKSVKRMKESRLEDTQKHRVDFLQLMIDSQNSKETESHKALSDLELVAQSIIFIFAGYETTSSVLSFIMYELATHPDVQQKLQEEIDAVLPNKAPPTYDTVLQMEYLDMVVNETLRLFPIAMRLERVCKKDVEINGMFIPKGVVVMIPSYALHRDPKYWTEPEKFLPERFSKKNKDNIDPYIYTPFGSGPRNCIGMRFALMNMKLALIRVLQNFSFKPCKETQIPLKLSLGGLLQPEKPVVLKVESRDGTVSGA

Cytochrome P450 2C9 = Cytochrome P450 2C9 (Homo sapiens, UniProt P11712)
Sequence of Cytochrome P450 2C9 (P11712 whole entry): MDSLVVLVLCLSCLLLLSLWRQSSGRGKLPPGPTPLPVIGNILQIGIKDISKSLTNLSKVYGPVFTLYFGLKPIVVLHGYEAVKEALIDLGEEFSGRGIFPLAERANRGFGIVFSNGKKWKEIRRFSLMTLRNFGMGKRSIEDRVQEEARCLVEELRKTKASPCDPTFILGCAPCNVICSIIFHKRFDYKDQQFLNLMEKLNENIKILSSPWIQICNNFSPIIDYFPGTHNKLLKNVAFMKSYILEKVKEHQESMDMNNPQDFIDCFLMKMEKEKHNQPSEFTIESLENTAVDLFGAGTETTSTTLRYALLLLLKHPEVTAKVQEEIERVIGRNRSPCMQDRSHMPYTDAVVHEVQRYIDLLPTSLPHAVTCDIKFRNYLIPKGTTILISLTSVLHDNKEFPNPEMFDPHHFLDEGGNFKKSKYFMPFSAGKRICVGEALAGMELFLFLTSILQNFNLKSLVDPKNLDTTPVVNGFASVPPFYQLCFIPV

Streptococcus = assay: Group A Streptococcus viability loss, dose response, counter-screen for streptokinase expression inhibitor project, luminescence, BacTiterGlo (AID 1915); format: functional, organism-based;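 note: potency for reduction of bacterial viability or growth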
[1] = test system: Streptococcus sp. 'group A'; assay: growth inhibition of control SK(-) GAS strain, dose response, counter-screen for streptokinase expression inhibitor project, luminescence, kanamycin, BacTiterGlo, confirmation (AID 1900); format: functional, organism-based
Cytochrome P450 2C19 = Cytochrome P450 2C19 (Homo sapiens, UniProt P33261); assay: Cytochrome panel assay with activity outcomes. Panel member name: p450-cyp2c19 Compounds with AC50 equal or less than 10 uM are considered active; format: functional; details: read-out: AC50
Sequence of Cytochrome P450 2C19 (P33261 whole entry): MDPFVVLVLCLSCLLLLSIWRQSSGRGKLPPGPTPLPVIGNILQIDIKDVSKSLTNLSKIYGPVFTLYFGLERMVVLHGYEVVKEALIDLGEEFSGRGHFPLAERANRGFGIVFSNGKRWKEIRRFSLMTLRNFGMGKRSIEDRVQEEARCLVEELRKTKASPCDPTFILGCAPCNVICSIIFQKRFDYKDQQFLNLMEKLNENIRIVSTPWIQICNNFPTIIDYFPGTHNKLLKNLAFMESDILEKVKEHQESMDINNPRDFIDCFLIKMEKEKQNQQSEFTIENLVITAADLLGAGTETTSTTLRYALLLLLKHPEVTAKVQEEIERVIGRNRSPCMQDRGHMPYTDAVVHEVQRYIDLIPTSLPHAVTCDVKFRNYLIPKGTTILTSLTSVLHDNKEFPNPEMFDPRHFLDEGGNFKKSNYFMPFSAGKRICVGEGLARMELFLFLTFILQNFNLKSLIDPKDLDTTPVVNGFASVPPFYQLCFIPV

[2] = target: T1, Corticotropin-releasing factor receptor 2/Corticotropin-releasing factor-binding protein (Homo sapiens, UniProt P24387+Q13324); assay: activators of CRF receptor 2 with binding protein – uHTS hits, confirmation (AID 602473); format: functional; details: read-out: EC50_Mean
T1 sequence (Q13324 whole entry): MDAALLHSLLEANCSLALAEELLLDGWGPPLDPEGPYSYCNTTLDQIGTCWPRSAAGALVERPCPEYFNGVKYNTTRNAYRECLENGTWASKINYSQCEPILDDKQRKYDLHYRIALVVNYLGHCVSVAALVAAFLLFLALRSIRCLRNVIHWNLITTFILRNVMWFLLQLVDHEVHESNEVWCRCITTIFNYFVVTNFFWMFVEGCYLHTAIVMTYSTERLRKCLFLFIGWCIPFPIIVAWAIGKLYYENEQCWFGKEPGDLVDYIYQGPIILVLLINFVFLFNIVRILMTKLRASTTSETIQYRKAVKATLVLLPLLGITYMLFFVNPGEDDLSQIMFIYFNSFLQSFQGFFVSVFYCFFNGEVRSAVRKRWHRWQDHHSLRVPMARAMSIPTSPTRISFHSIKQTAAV
T1 sequence (P24387 whole entry): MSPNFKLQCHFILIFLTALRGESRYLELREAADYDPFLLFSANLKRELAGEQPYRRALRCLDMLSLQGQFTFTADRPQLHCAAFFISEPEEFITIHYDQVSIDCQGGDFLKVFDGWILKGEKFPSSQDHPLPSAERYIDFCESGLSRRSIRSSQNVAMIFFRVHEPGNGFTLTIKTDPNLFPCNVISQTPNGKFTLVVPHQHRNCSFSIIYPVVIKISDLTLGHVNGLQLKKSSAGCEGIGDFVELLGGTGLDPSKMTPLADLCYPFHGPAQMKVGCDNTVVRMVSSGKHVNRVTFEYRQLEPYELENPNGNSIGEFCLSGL

Cytochrome P450 1A2 = target: T2, Cytochrome P450 1A2 (Homo sapiens, UniProt P05177);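 note: PubChem cytochrome P450 panel assay, CYP1A2 panel member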
T2 sequence (P05177 whole entry): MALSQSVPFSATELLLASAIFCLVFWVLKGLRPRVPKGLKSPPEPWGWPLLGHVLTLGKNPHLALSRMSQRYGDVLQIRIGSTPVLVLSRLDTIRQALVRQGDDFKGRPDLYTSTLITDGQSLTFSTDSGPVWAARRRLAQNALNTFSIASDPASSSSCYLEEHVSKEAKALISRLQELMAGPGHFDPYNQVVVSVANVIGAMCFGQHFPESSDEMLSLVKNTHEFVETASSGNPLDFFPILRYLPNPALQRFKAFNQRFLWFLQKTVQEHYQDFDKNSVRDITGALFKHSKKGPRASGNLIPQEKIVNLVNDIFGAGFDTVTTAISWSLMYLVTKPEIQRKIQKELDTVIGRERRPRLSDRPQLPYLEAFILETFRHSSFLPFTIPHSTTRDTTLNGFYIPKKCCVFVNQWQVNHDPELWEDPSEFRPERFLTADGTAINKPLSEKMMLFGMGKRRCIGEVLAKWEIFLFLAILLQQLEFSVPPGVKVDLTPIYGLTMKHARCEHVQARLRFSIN

Structure (SMILES): COc1ccc(-c2cc(C(=O)NC(C)c3ccccn3)c3ccccc3n2)cc1OC (stereo not drawn)
- IC50 (H9c2): > 79 µM (inactive)

Structure (SMILES): COc1cc(-c2cc(C(=O)Nc3cccc(C(C)=O)c3)c3ccccc3n2)cc(OC)c1OC
- IC50 (H9c2): > 79 µM (inactive)

Structure (SMILES): COc1ccc(-c2nc3cnc(Oc4ccccc4)nc3n(Cc3cccs3)c2=O)cc1
- AC50 (Cytochrome P450 2C9): 1.26 µM (inconclusive)

Structure (SMILES): Cc1nnc(SCC2=C(C(=O)O)N3C(=O)C(NC(=O)Cn4ncc(Cl)c4C)C3SC2)s1 (stereo not drawn)
- EC50 (Streptococcus): 0.117 µM (active)
- EC50 [1]: < 0.06 µM (active)

Structure (SMILES): Cc1ncc(CO)c2c1Oc1nc(-c3ccccc3)nc(SCC(=O)N3CCCCC3)c1C2
- IC50 (H9c2): > 79 µM (inactive)

Structure (SMILES): CC(OC(=O)Cn1[nH]c(=O)c2ccccc2c1=O)C(=O)Nc1ccc(F)cc1 (stereo not drawn)
- IC50 (H9c2): > 79 µM (inactive)

Structure (SMILES): N#C/C(=C\NC(=S)c1ccncc1)c1nc2ccccc2s1
- AC50 (Cytochrome P450 3A4): 2.51 µM (inconclusive)
- AC50 (Cytochrome P450 2C9): 6.31 µM (inconclusive)

Structure (SMILES): COc1ccc(-c2csc(NC(=O)c3ccc(OCC(=O)N4CCOCC4)c(OC)c3)n2)cc1OC
- IC50 (H9c2): > 79 µM (inactive)

Structure (SMILES): C=CCN1CC[C@@]23c4c5ccc(O)c4O[C@H]2/C(=N\N=C2/CC[C@@]4(O)[C@H]6Cc7ccc(O)c8c7[C@@]4(CCN6CC=C)[C@@H]2O8)CC[C@]3(O)[C@@H]1C5
- AC50 (Cytochrome P450 3A4): 31.6 µM (inconclusive) and 25.1 µM (inconclusive)

Structure (SMILES): Oc1ccc(Cl)cc1C1=NNC(c2ccc(Cl)cc2)C1 (stereo not drawn)
- EC50 (Streptococcus): 5.5 µM (active)
- EC50 [1]: 2.78 µM (active)

Structure (SMILES): CCCCc1nc(O)c2c3c(sc2n1)CCC3
- IC50 (H9c2): > 79 µM (inactive)

Structure (SMILES): COc1ccc(Cc2nn3c(O)cc(C(C)C)nc3c2-c2ccccc2)cc1
- EC50 (Streptococcus): 4.68 µM (active)
- EC50 [1]: 1.78 µM (active)

Structure (SMILES): O=C(CN(C(=O)Cn1nnc(-c2cccs2)n1)c1cnc2ccccc2c1)NCC1CCCO1 (stereo not drawn)
- IC50 (H9c2): 75.1 µM (inactive)

Structure (SMILES): O=C(c1ccc(-c2nnc(Nc3ccccc3)c3ccccc23)cc1)N1C[C@H]2C[C@H](C1)c1cccc(=O)n1C2
- AC50 (Cytochrome P450 2C9): 2 µM (inconclusive)
- AC50 (Cytochrome P450 1A2): 14.1 µM (inconclusive)

Structure (SMILES): COC(=O)[C@@H]1[C@@H](O)[C@@]2(O)c3c(OC)cc(OC)cc3O[C@@]2(c2ccc(OC)cc2)[C@H]1c1ccccc1
- AC50 (Cytochrome P450 3A4): 10 µM (inconclusive)

Further lines, results first:

- AC50 (Cytochrome P450 3A4): 15.8 µM (inconclusive)
- AC50 (Cytochrome P450 2C9): 20 µM (inconclusive)
Structure (SMILES): COC(=O)c1cc(OC)c(OC)cc1NC(=O)CSc1ccccc1

- AC50 (Cytochrome P450 3A4): 15.8 µM (inconclusive)
Structure (SMILES): C[C@@]1(C(NC(=O)Cc2ccccc2)c2ccc(-c3ccccc3)cc2)C[C@H]1C1CCCCC1 (stereo partly drawn)

- AC50 (Cytochrome P450 2C19): 17.8 µM (inconclusive)
- AC50 (Cytochrome P450 2C9): 17.8 µM (inconclusive)
Structure (SMILES): COc1ccc(C2CC(C(F)(F)F)n3nc(C(=O)N(C)Cc4cn(C)nc4C)c(Cl)c3N2)cc1 (stereo not drawn)

- EC50 [2]: 9.1 µM (active)
Structure (SMILES): CC(C)N(CCn1c(=S)[nH]c2ccccc2c1=O)C(C)C

- AC50 (Cytochrome P450 2C19): 7.08 µM (inconclusive)
- AC50 (Cytochrome P450 2C9): 0.794 µM (inconclusive)
Structure (SMILES): O=C(Nc1nnc(C2CC2)s1)c1ccc(S(=O)(=O)c2ccccc2)cc1

- AC50 (Cytochrome P450 3A4): 31.6 µM (inconclusive)
Structure (SMILES): COCCNc1ccnc(-c2c(C)noc2C)n1

- AC50 (Cytochrome P450 2C19): 10 µM (inconclusive)
- AC50 (Cytochrome P450 3A4): 12.6 µM (inconclusive)
- AC50 (Cytochrome P450 2C9): 20 µM (inconclusive)
Structure (SMILES): COCCn1c(=O)c(-c2ccc(F)cc2)nc2cnc(OCc3ccccc3)nc21

- AC50 (Cytochrome P450 2C9): 3.98 µM (inconclusive)
Structure (SMILES): OCCSCc1cc(Cl)cc(Cl)c1O

- AC50 (Cytochrome P450 3A4): 3.98 µM (inconclusive)
Structure (SMILES): CCC/C=C(\CCC)C(NS(=O)(=O)c1ccc(C(F)(F)F)cc1)c1ccc(-c2ccccc2)cc1 (stereo not drawn)

- EC50 [2]: 19.4 µM (active)
Structure (SMILES): CN(C)C(=O)COC(=O)[C@H](Cc1ccccc1)NC(=O)c1ccco1

- AC50 (Cytochrome P450 3A4): 25.1 µM (inconclusive)
Structure (SMILES): CS(=O)(=O)N1CCC2(CCCN(C(=O)Nc3cccc(C#N)c3)C2)CC1

- AC50 (Cytochrome P450 3A4): 10 µM (inconclusive)
- AC50 (Cytochrome P450 2C9): 20 µM (inconclusive)
Structure (SMILES): COc1ccc(CN2CN=C(Nc3nc4ccccc4s3)NC2)cc1

- AC50 (Cytochrome P450 2C19): 3.16 µM (inconclusive)
- AC50 (Cytochrome P450 3A4): 17.8 µM (inconclusive)
- AC50 (Cytochrome P450 1A2): 10 µM (inconclusive)
Structure (SMILES): Cc1ccc(-c2nnc(N(C)C(=O)c3cccnc3)s2)cc1

- AC50 (Cytochrome P450 2C19): 0.501 µM (inconclusive)
- AC50 (Cytochrome P450 2C9): 0.00562 µM (inconclusive)
Structure (SMILES): COCCCn1c(=S)[nH]c2ncccc2c1=O
